This is an account of results in patent publication US5985856A, “Water soluble prodrugs of secondary and tertiary amine containing drugs and methods of making thereof” (University of Kansas, priority 1998, dated 1999).

≈ marks a conversion by molar mass, not a printed value. Where two headings read alike, the source gives them in different places.

Data set [1] in a line: in vivo. Conditions: dog, iv.
Method: (§1) Cinnarizine for i.v. injection was prepared in a 10 mM phosphate buffer solution at pH 4.5 at a concentration of 12.5 mg/10 ml (3.39 mM) along with 37.5 mM sulfobutylether 4 beta-cyclodextrin as a solubilizing excipient. The cyclodextrin solution (10 ml) was prepared first and the pH adjusted to 3.5 with HCl. The cinnarizine was then added and the solution was sonicated for three hours and subsequently stirred overnight. The pH was then adjusted to 4.5 with NaOH along with the addition of 29 mg of NaCl to adjust for isotonicity. The solution was then passed through a 0.22 μM nylon-membrane filter just prior to administration. The prodrug injection was prepared by dissolving 16.97 mg or cinnarizine prodrug in 10 ml of 0.9% NaCl sterile solution (3.39 mM) for injection. The solution was passed through a 0.22 μM nylon-membrane filter just prior to injection.
(§2) The evaluation of the cinnarizine plasma concentration versus time was conducted with a male beagle dog weighing 11.1 kg. The dog received the cinnarizine injection followed by a two-week washout period then received the prodrug injection in an equal molar quantity. Samples were taken from the dog prior to dosing (10 ml blank plasma) and 2, 6, 10, 20, 40 min and 1, 2, 4, 6, 8, 24 hours post-dosing (3 ml each). Blood samples were drawn from either cephalic, saphenous, or jugular vein. The samples were centrifuged for 10 minutes and 1 ml of plasma was measured and frozen at -20° C. prior to sampling by HPLC. The dog received a regular diet between experiments and was fasted the day of the experiment.
(§3) Plasma concentrations of cinnarizine were determined by HPLC with fluorescence detection. To each one milliliter of plasma was added: 100 μL of acetonitrile-H2O (70:30, v/v), containing 40 μg meclizine (internal standard), and 100 μL of 0.5 M HCl. The plasma sample was then vortexed for 30 seconds. One ml of carbon tetrachloride was then combined with the sample for an additional one minute of vortexing. Samples were then centrifuged for ten minutes after which the carbon tetrachloride was removed and evaporated to dryness under a stream of dry nitrogen. The residue was then redissolved in 200 μL of acetonitrile-H2 O (70:30, v/v) prior to sampling by HPLC. The results were calculated from peak area ratios. A six-point standard curve was obtained using the above procedure with addition of cinnarizine concentrations in the range of 5.5 to 550 ng/ml of plasma. A three-point calibration was performed on the day of the study using high, medium and low cinnarizine concentrations. This calibration was used for the quantification of cinnarizine concentration in the samples.
(§4) The HPLC system consisted of a Shimadzu LC-6A pump (Kyoto, Japan), a Rheodyne 7125 injector (Cotati, Calif.), a Shimadzu RF-535 Fluorescence HPLC monitor (Kyoto, Japan), and a Shimadzu CR-601 integrator (Kyoto, Japan). The HPLC conditions were as follows: injection volume, 50 μL; flow rate, 1.5 ml/min; excitation at 260 nm and emission at 315 nm. The stationary phase was a C18 ODS Hypersil reverse phase column (15 cm×4.6 mm i.d., 5 μM). The mobile phase was a 7 to 3 ratio of aceronitrile to buffer, respectively. The buffer consisted of 25 mmole potassium dihydrogen phosphate (adjusted to pH 3.9 with phosphoric acid) and 10 mM tetrabutyl ammonium dihydrogen phosphate.
(§5) Pharmacokinetic analysis was performed on the semilogarithmic plot of cinnarizine plasma concentration versus time post dosing for both the cinnarizine and cinnarizine prodrug injections. […] The equation had the form: C=A1e^-A1t +A2e^-A2t +A3e^-A3t, where t is time. Plasma terminal half life (t1/2) is calculated from t1/2 =0.693/λ3.
The nature of data set [2]: Pharmacokinetic evaluation of cinnarizine plasma concentration after i.v. injection. Conditions: male beagle dog.
Method: as §1, §2, §3, §4, §5
A short description of data set [3]: physchem. The class given is physicochemical. Here is the method:
Loxamine succinate is obtained from Research Biochemicals Incorporated (Natick, Mass.). […] Each pH solution is a 0.05 M buffered solution with an ionic strength adjusted to μ=0.2 with NaCl. The pH values along with their buffer composition are listed: pH 3.24, HCl/CH3 COONa; pH 3.96 and 4.96, CH3 COOH/CH3 COONa; pH 5.82-7.94, NaH2 PO4 /Na2 HPO4; pH 8.95 and 9.98, H3 BO3 /NaOH. The volume of buffer used in the experiments varies; samples with pH equal to or below 4.96 utilize 2 ml of buffer whereas the higher pH samples has a volume of 5 ml. […] The vials are then capped, sonicated and vortexed prior to submersion in a constant temperature shaking water bath at 25° C. The samples are shaken at a rate of 100 shakes/min. for at least 24 hours. […] The filtrates/supernatants are then appropriately diluted for quantification by HPLC. […] A C-18 reversed phase column (150×4 mm, ODS Hypersil, 5 μm particle size) is used for the analysis. The HPLC assays are carried out using UV detection at 254 nm. The mobile phase consists of acetonitrile and 25 mM of aqueous potassium phosphate monobasic solution adjusted to pH 3.8 with phosphoric acid. 0.15% of triethylamine is contained in the aqueous buffer.

The nature of data set [4]: Preliminary visual solubility estimates of synthesized prodrugs. The format is physicochemical. Conditions: preliminary visual estimate, pH 7.4. An excerpt: The present prodrugs are designed to increase the aqueous solubility and safety of amine-containing drugs. Preliminary visual solubility estimates for each of the prodrugs are listed below in Table 2.
The conditions of data set [5]: dog, in vivo.
Method: as §1, §2, §3, §4, §5
Data set [6] is described as follows: physchem. The format is physicochemical. Conditions: for solubility: 24 h. Here is the method: Each pH solution contains 0.05 M buffer with an ionic strength adjusted to μ=0.2 with NaCl. The pH 3 buffer composition is HCl/CH3 COONa; whereas, the pH 7.4 buffer composition is NaH2 PO4 /Na2 HPO4. The volume of buffer used in the experiments is 150 μl. To this is added excess of the loxapine prodrug in one ml glass screw top vials. The vials are then capped, sonicated and vortexed prior to submersion in a constant temperature shaking water bath at 25° C. The samples are shaken at a rate of 100 shakes/min. for at least 24 hours. The suspensions are then placed in a micro centrifuge to precipitate the excess drug. A volume of 50 μl of the supernatant is then appropriately diluted with water for quantification by reverse phase HPLC. […] A C-18 reversed phase column (150×4 mm, ODS Hypersil, 5 μm particle size) is used for the analysis. The HPLC assays are carried out using UV detection at 254 nm. The mobile phase consists of acetonitrile and 25 mM of aqueous potassium phosphate monobasic solution adjusted to pH 3.8 with phosphoric acid. 0.15% of triethylamine is contained in the aqueous buffer. The ratio of organic:aqueous is 32:68. The retention time is 4.2 min. when the flow rate is adjusted to 1 ml/min.

Data set [7] is described as follows: pKa determination by 31P NMR method. Conditions: 10% d2o in h2o.
A short description of data set [8]: physchem. Conditions: 10% d2o in h2o.
Data set [9] can be described thus: physchem. The class given is physicochemical. Conditions: water. Here is the method:
A 0.01 M quinuclidine prodrug aqueous solution is titrated using a burette containing a 0.1 N sodium hydroxide volumetric standard solution obtained from Aldrich Chemical Company (Milwaukee, Wis.). […] This experiment is conducted at 25° C.
The first ionization constant, Ka1, is expected to be low and to be of little physiological importance; however, Ka2 is of much greater importance. With this in mind, the second ionization constant (Ka2) for the phosphate monoester promoiety of the quinuclidine was determined by two methods. These methods were potentiometric titration and ^31 P NMR. The potentiometric titration is by far the most traditional and accepted means for estimating pKa values; however, it has one main disadvantage. It requires significant quantities of, difficult to synthesize, prodrug. The quinuclidine prodrug is, by far, the simplest prodrug to synthesize and was chosen for the following experiments for that reason. For the potentiometric titration method, the volume of base added was plotted against the change in pH. This plot allows one to determine the volume of base required to reach the endpoint of the titration.

The mark [10] stands for this setting: 0.05 m hcl/ch3coona buffer, pH 3.
Setting [11] is: 0.05 m nah2po4/na2hpo4 buffer, pH 7.4.

In general, Vd refers to a proportionality between amount in the body and measured concentration, not a real space. The low end stands for little distribution into tissue, the high end for wide distribution into tissue. The clearance is the rate of elimination divided by the concentration. A word on the half-life: it is the time needed for the level to fall by half in the phase considered. Low values mean fast loss, high ones slow loss. By solubility is commonly meant how much of the substance goes into solution per volume. By pKa is commonly meant the negative logarithm of the acid dissociation constant. The low end stands for a stronger acid or weaker base, the high end for a weaker acid or stronger base.

In data set [1], `C(=C\c1ccccc1)/CN1CCN(C(c2ccccc2)c2ccccc2)CC1` [Cinnarizine] showed a Vd of 21.7 L/kg, a clearance of 19.5 mL/min/kg and a half-life of 12 h. The “observable signs of discomfort or toxicity after injection” value in data set [2] is on record as “no observable signs of discomfort or toxicity”.

On to `CN1CCN(C2=Nc3ccccc3Oc3ccc(Cl)cc32)CC1` [Loxapine free base, Loxapine], for which the solubility in data set [3] (0.05 m buffer, aqueous buffer) stood at 0.0126 mg/mL (≈ 0.0384 mM); in data set [3] (hcl/ch3coona buffer, pH 3.24), 8.23 mg/mL (≈ 25.1 mM).

Consider `CCCCc1oc2ccccc2c1C(=O)c1cc(I)c(OCC[N+](CC)(CC)COP(=O)([O-])O)c(I)c1` [amiodarone prodrug], for which the solubility in data set [4] is greater than 5 mg/mL.

As to `O=P([O-])(O)OC[N+]1(C/C=C/c2ccccc2)CCN(C(c2ccccc2)c2ccccc2)CC1` [cinnarizine prodrug], the solubility in data set [4] is greater than 5 mg/mL. Moreover, the “observable signs of discomfort or toxicity after injection” value in data set [2] is “no observable signs of discomfort or toxicity”. In addition, the “conversion of prodrug to cinnarizine upon intravenous administration” value in [5] is “rapidly and quantitatively converted to cinnarizine”. In data set [5] (iv), the Cl was 19.5 mL/min/kg, the Vd came to 21.2 L/kg and the “t1/2 (plasma terminal half life of cinnarizine)” value worked out at 12.6 h.

With `C[N+]1(COP(=O)([O-])O)CCN(C2=Nc3ccccc3Oc3ccc(Cl)cc32)CC1` [loxapine prodrug], the solubility in [6] (setting [10]) is 290.5 ± 2.9 mg/mL (≈ 664 mM); in [6] (setting [11]), 648.2 ± 0.6 mg/mL (≈ 1480 mM); in data set [4] it was greater than 600 mg/mL. The solubility at 24 h was found to be 290.5 ± 2.9 mg/mL (≈ 664 mM) in data set [6] (setting [10]) and 648.2 ± 0.6 mg/mL (≈ 1480 mM) in [6] (setting [11]). For the same molecule, the “solubility limit relative to the concentration used in the parenteral formulation (50 mg/ml loxapine)” value in data set [6] (without cosolvents) is 9.7 times. The same molecule returned a pKa in [7] of 4.7.

On to `O=P([O-])(O)OC[N+]12CCC(CC1)CC2` [quinuclidine prodrug], for which the values for the pKa in data set [8] and in [9] were 4.9 and 5, respectively.
